Test results taken from the NIST ThermoML archive (doi:10.1021/acs.jced.5b00331).
Numbers after ± are expanded uncertainties.

Experiments:
[1] = xn = mol fraction of the nth substance listed; conditions: 101 kPa, Liquid; for mass density: Vibrating tube method; for excess molar volume: Direct dilatometry
[2] = 313.15 K; 101.33 kPa; Liquid; Vibrating tube method

For C1CCCCCC1 [cycloheptane] + C1CCCC1, the mass density ([1]; 313.15 K, x2 = 0.4999) was 762.9 ± 0.2 kg/m3.

With C1CCCCC1 [cyclohexane] the mass density [2] was 759.8 ± 0.2 kg/m3.

Work on CCCCCCCCCCCCCCCCCCCCCC [docosane] + CCCCCCCCCC yielded a mass density ([1]; 313.15 K, x2 = 0.5001) of 758.9 ± 0.2 kg/m3.

With CCCCCCCCCCCCCCCC [hexadecane] the mass density [2] was 762.9 ± 0.3 kg/m3.

In the case of CCCCCCCCCCCCCCCC [hexadecane] + C1CCCCC1, the excess molar volume ([1]; 313.15 K, x2 = 0.0083) is reported as 1.32e-08 ± 2.8e-09 m3/mol, the excess molar volume ([1]; 313.15 K, x2 = 0.03441) is reported as 5.31e-08 ± 2.9e-09 m3/mol and the excess molar volume ([1]; 313.15 K, x2 = 0.0839) is reported as 1.341e-07 ± 3.1e-09 m3/mol. It also gave an excess molar volume ([1]; 313.15 K, x2 = 0.1372) of 2.074e-07 ± 3.8e-09 m3/mol, an excess molar volume ([1]; 313.15 K, x2 = 0.2221) of 3.185e-07 ± 5.1e-09 m3/mol and an excess molar volume ([1]; 313.15 K, x2 = 0.3029) of 4.088e-07 ± 6.6e-09 m3/mol. For the same compound, the excess molar volume ([1]; 313.15 K, x2 = 0.3641) was 4.671e-07 ± 7.7e-09 m3/mol, the excess molar volume ([1]; 313.15 K, x2 = 0.4199) was 5.136e-07 ± 8.8e-09 m3/mol and the excess molar volume ([1]; 313.15 K, x2 = 0.4911) was 5.593e-07 ± 1e-08 m3/mol. It also gave an excess molar volume ([1]; 313.15 K, x2 = 0.5316) of 5.779e-07 ± 9.7e-09 m3/mol, an excess molar volume ([1]; 313.15 K, x2 = 0.5632) of 5.878e-07 ± 9.2e-09 m3/mol and an excess molar volume ([1]; 313.15 K, x2 = 0.59) of 5.938e-07 ± 8.6e-09 m3/mol. For the same compound, the excess molar volume ([1]; 313.15 K, x2 = 0.6216) was 5.968e-07 ± 8e-09 m3/mol, the excess molar volume ([1]; 313.15 K, x2 = 0.6527) was 5.956e-07 ± 7.4e-09 m3/mol and the excess molar volume ([1]; 313.15 K, x2 = 0.6834) was 5.888e-07 ± 6.9e-09 m3/mol. For the same compound, the excess molar volume ([1]; 313.15 K, x2 = 0.7073) was 5.731e-07 ± 6.3e-09 m3/mol, the excess molar volume ([1]; 313.15 K, x2 = 0.7163) was 5.728e-07 ± 6.1e-09 m3/mol and the excess molar volume ([1]; 313.15 K, x2 = 0.7223) was 5.731e-07 ± 6.1e-09 m3/mol. It also gave an excess molar volume ([1]; 313.15 K, x2 = 0.7489) of 5.558e-07 ± 6.1e-09 m3/mol, an excess molar volume ([1]; 313.15 K, x2 = 0.7508) of 5.513e-07 ± 6.1e-09 m3/mol and an excess molar volume ([1]; 313.15 K, x2 = 0.7749) of 5.318e-07 ± 5.3e-09 m3/mol. The excess molar volume ([1]; 313.15 K, x2 = 0.8022) was 5.039e-07 ± 4.8e-09 m3/mol, the excess molar volume ([1]; 313.15 K, x2 = 0.8303) was 4.675e-07 ± 4.5e-09 m3/mol and the excess molar volume ([1]; 313.15 K, x2 = 0.8736) was 3.939e-07 ± 4e-09 m3/mol. It also gave an excess molar volume ([1]; 313.15 K, x2 = 0.8928) of 3.535e-07 ± 3.9e-09 m3/mol, an excess molar volume ([1]; 313.15 K, x2 = 0.9106) of 3.105e-07 ± 3.9e-09 m3/mol and an excess molar volume ([1]; 313.15 K, x2 = 0.9242) of 2.747e-07 ± 4e-09 m3/mol. The excess molar volume ([1]; 313.15 K, x2 = 0.9453) was 2.13e-07 ± 4e-09 m3/mol, the excess molar volume ([1]; 313.15 K, x2 = 0.9634) was 1.518e-07 ± 4.4e-09 m3/mol and the excess molar volume ([1]; 313.15 K, x2 = 0.9801) was 8.6e-08 ± 4.7e-09 m3/mol. For the same compound, the excess molar volume ([1]; 313.15 K, x2 = 0.988) was 5.32e-08 ± 4.9e-09 m3/mol and the excess molar volume ([1]; 313.15 K, x2 = 0.9948) was 2.3e-08 ± 5e-09 m3/mol.

With CCCCCCCCCCCCCCCCCC [octadecane] + CCCCCCCCCCCCCC the mass density ([1]; 313.15 K, x2 = 0.5001) was 758.4 ± 0.2 kg/m3.

Work on CCCCCCCCCCCCCCCCCCCCCCCC [tetracosane] + CCCCCCCC yielded a mass density ([1]; 313.15 K, x2 = 0.5) of 758.8 ± 0.3 kg/m3 and a mass density ([1]; 315.65 K, x2 = 0.5) of 757.1 ± 0.3 kg/m3.
